In one test the target is T1, plasma kallikrein (PKa) (Homo sapiens, UniProt P03952).
T1 construct: purchased R & D 2497-SE
The test is described as follows: Inhibitory activity against plasma kallikrein in vitro (fluorescence intensity enzyme assay, Pro-Phe-Arg-AMC substrate). The test is classed as biochemical. The settings on record: plasma kallikrein enzyme assay, Pro-Phe-Arg-AMC substrate; read-out: PKa IC50. In short, it runs like this: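 Fluorescence intensity enzyme assay with 10 nM enzyme and 60 µM Pro-Phe-Arg-AMC (final concentrations). Compounds in DMSO, tested in duplicate over a dose series. IC50 from nonlinear regression curve fitting.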

In the next test the target is KLK1 (Homo sapiens, UniProt P06870). The test can be described thus: Inhibitory activity against KLK1 in vitro (biochemical assay). The text has this: Test Example 1. Test of the inhibitory activities of the compounds of the present invention against plasma kallikrein (PKa), KLK1 and FXIa in vitro. […]
KLK1, sequence (P06870 25-262, species assumed): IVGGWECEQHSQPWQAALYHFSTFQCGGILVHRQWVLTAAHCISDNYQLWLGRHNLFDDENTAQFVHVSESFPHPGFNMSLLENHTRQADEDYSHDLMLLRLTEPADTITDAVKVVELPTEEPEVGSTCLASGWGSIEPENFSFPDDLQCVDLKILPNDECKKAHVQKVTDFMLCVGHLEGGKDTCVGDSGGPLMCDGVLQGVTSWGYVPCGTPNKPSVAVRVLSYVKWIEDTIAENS
The next test concerns the target FXIa (Homo sapiens, UniProt P03951). The test is described as follows: Inhibitory activity against FXIa in vitro (biochemical assay). The procedure:
Test Example 1. Test of the inhibitory activities of the compounds of the present invention against plasma kallikrein (PKa), KLK1 and FXIa in vitro.
PKK (R & D, Cat # 2497-SE) and Pro-Phe-Arg-AMC (Nanjing Peptide, Cat # NJP23946) solutions were prepared in reaction buffer (50 mM Tris-HCl, pH 7.5, 250 mM NaCl). The final concentrations of enzyme protein and Pro-Phe-Arg-AMC in the reaction mixture were 10 nM and 60 µM, respectively. The starting concentration of the positive reference substance Avoralstat was 100 nM, 3-fold dilution, 10 + 0 dose. 0.05 µL of compound in 100% DMSO was delivered to a 384-well plate by an acoustic liquid delivery technique (Echo665; nanoliter range). Compound duplex test. 5 µL of 2 × enzyme solution was transferred to a 384 reaction plate and centrifuged at 1000 rpm for 1 minute, incubated at 25°C for 15 minutes; 5 µL of 2 × Pro-Phe-Arg-AMC solution was transferred to a 384 reaction plate, centrifuged at 1000 rpm for 1 minute, incubated at 25°C for 3 hours. […] IC50 values and nonlinear regression curve fitting were obtained using GraphPad Prism software.

SMILES strings stand for the structures. A value given as a limit tells only on which side of the number the result lay.

FXIa, sequence (P03951 388-625 limits assumed): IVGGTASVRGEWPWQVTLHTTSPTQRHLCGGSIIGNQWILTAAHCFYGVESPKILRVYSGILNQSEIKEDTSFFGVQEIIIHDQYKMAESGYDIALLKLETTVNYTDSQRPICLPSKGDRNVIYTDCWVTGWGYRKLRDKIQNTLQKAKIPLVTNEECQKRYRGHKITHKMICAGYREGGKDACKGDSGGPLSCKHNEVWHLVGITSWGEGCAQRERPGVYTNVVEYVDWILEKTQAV
FXIa, sequence (P03951 19-387 partner limits assumed): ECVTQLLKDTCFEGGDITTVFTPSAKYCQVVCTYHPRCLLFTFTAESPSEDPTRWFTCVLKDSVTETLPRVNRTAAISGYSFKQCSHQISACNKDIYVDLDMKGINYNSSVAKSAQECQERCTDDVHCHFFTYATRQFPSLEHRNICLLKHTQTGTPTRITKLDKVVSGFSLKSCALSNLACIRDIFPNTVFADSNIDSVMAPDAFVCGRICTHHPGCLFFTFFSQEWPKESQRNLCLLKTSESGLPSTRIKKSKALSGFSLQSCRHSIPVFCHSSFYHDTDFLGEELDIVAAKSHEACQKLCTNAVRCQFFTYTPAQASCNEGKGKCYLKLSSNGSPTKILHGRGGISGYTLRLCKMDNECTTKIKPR
T1 sequence (P03952 391-638 limits assumed): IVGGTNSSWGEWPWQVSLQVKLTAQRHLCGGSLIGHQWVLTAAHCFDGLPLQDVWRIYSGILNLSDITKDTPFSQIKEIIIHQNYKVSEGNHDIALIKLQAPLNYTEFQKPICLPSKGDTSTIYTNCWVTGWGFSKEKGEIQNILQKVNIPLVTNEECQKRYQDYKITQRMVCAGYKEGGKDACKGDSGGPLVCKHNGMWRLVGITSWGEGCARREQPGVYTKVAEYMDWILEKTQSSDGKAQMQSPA
T1 sequence (P03952 20-390 partner limits assumed): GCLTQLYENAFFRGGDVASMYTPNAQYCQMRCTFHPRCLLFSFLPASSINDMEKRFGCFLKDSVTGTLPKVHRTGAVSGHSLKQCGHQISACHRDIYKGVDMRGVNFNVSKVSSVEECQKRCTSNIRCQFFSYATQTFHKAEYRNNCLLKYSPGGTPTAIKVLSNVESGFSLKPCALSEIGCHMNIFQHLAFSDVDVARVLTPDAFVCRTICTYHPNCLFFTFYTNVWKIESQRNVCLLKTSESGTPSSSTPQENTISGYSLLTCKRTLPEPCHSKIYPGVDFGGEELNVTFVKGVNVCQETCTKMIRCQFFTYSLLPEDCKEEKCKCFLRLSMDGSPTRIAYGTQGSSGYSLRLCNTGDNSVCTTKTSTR

As a reminder, the IC50 is the midpoint of a concentration-inhibition curve. With `N=C(N)c1ccc(CNC(=O)c2cnn(Cc3ccc(N4CC5C(C4)C5(F)F)c(C(F)(F)F)c3)c2)cc1` (stereo not drawn) [Compound 382], the IC50 at plasma kallikrein (PKa) is 0.15 nM; on KLK1 (values given in µM) it was > 10 µM; against FXIa (values given in µM) it was > 10 µM.
As to `Cc1cc(N)nc(C)c1CNC(=O)c1cnn(Cc2ccc(N3CC4C(C3)C4(F)F)cc2C#N)c1` (stereo not drawn) [Compound 7, N-((6-amino-2,4-dimethylpyridin-3-yl)methyl)-1-(2-cyano-4-(6,6-difluoro-3-azabicyclo[3.1.0]hexan-3-yl)benzyl)-1H-pyrazole-4-carboxamide], the IC50 was < 0.051 nM at plasma kallikrein (PKa), > 10 µM at KLK1 (values given in µM) and > 10 µM at FXIa (values given in µM).
With `COc1ccc(F)c(CNC(=O)c2cn(Cc3ccc(Cn4cc(F)ccc4=O)cc3)nc2C2CC2(F)F)c1F` (stereo not drawn) [Compound 218], the IC50 at plasma kallikrein (PKa) is 2.16 nM; on KLK1 (values given in µM), > 10 µM; at FXIa (values given in µM), > 10 µM.
`Cc1cc(N)nc(C)c1CNC(=O)c1cnn(Cc2ccc3ncc(Cl)cc3c2)c1` [Compound 10, N-((6-amino-2,4-dimethylpyridin-3-yl)methyl)-1-((3-chloroquinolin-6-yl)methyl)-1H-pyrazole-4-carboxamide]: the IC50 was 0.132 nM on plasma kallikrein (PKa), > 10 µM against KLK1 (values given in µM) and > 10 µM against FXIa (values given in µM).
Turning to `N#Cc1cc(N2CC3C(C2)C3(F)F)ccc1Cn1cnc(C(=O)NC2CCc3cc(N)ncc32)n1` (single isomer, unassigned) [Compound 54], the IC50 on plasma kallikrein (PKa) was 0.46 nM; on KLK1 (values given in µM), > 10 µM; against FXIa (values given in µM), > 10 µM.
Consider `Cc1cc(N)nc(C)c1CNC(=O)c1cn(Cc2ccc(CN3CCOCC3=O)cc2)nc1C(F)F` [Compound 64], for which the IC50 at plasma kallikrein (PKa) was 2.99 nM; at KLK1 (values given in µM), > 10 µM; on FXIa (values given in µM), > 10 µM.
In the case of `N=C(N)c1ccc(CNC(=O)c2cnn(Cc3ccc(Cn4ccccc4=O)cc3)c2)cc1` [Compound 12], the IC50 is 1.62 nM on plasma kallikrein (PKa), > 10 µM at KLK1 (values given in µM) and > 10 µM at FXIa (values given in µM).
Consider `Cc1cc(N)nc(C)c1CNC(=O)c1ccc(Cc2ccc3ncc(Cl)cc3c2)s1` [Compound 3, N-((6-amino-2,4-dimethylpyridin-3-yl)methyl)-5-((3-chloroquinolin-6-yl)methyl)thiophene-2-carboxamide], for which the IC50 is 9.27 nM at plasma kallikrein (PKa), < 0.5 µM on KLK1 (values in nM) and < 0.5 µM at FXIa (values in nM).
As for `Cc1cc(N)nc(C)c1CNC(=O)c1nnn(Cc2ccc(Cn3ccccc3=O)cc2)n1` [Compound 55], the IC50 at plasma kallikrein (PKa) is 0.16 nM; at KLK1 (values given in µM), > 10 µM; on FXIa (values given in µM) it was > 10 µM.
For the molecule `Cc1cc(N)nc(C)c1CNC(=O)c1nnc(Cc2ccc(Cn3ccccc3=O)cc2)[nH]1` [Compound 44], the IC50 on plasma kallikrein (PKa) is 0.39 nM; at KLK1 (values given in µM), > 10 µM; against FXIa (values given in µM) it was > 10 µM.
As for `COCc1nn(Cc2c(F)c(F)c(Cn3cc(F)ccc3=O)c(F)c2F)cc1C(=O)NCc1c(C)cc(N)nc1C` [Compound 49], the IC50 on plasma kallikrein (PKa) was 2.78 nM; on KLK1 (values given in µM), > 10 µM; on FXIa (values given in µM), > 10 µM.
`COCc1nn(Cc2ccc(Cn3ccccc3=O)cc2)cc1C(=O)NCc1ncc2cc[nH]c2c1F` [Compound 364]: the figures for the IC50 at plasma kallikrein (PKa), against KLK1 (values given in µM) and on FXIa (values given in µM) were 2.06 nM, > 10 µM and > 10 µM, respectively.
Turning to `COc1cc(Cn2cc(C(=O)NCc3ccc(C(=N)N)cc3)cn2)cc(OC)c1CC1CC1` [Compound 375], the values for the IC50 on plasma kallikrein (PKa), against KLK1 (values given in µM) and on FXIa (values given in µM) were 0.85 nM, > 10 µM and > 10 µM, respectively.
With `Cc1nc(N)c(C)c(C)c1CNC(=O)c1cnn(Cc2ccc(Cn3ccccc3=O)cc2)c1` [Compound 256], the figures for the IC50 on plasma kallikrein (PKa), against KLK1 (values given in µM) and on FXIa (values given in µM) were 0.44 nM, > 10 µM and > 10 µM, respectively.
Regarding `COCc1nn(Cc2ccc(Cn3ccccc3=O)cc2)cc1C(=O)NCc1ncc2c(c1F)N(C)CC2` [Compound 391], the IC50 on plasma kallikrein (PKa) was 1.4 nM; against KLK1 (values given in µM), > 10 µM; against FXIa (values given in µM), > 10 µM.
Take `N=C(N)c1ccc(CNC(=O)c2cnn(Cc3ccc(OC4CCCC4)c(C(F)(F)F)c3)c2)cc1` [Compound 386]: the IC50 at plasma kallikrein (PKa) is 1.68 nM; on KLK1 (values given in µM) it was > 10 µM; on FXIa (values given in µM), > 10 µM.
Take `O=C(NCc1ncc2c(c1F)NCC2)c1cn(Cc2ccc(Cn3ccccc3=O)cc2)nc1C(F)(F)F` [Compound 390]: the IC50 is 2.02 nM on plasma kallikrein (PKa), > 10 µM against KLK1 (values given in µM) and > 10 µM on FXIa (values given in µM).
In the case of `CCOc1cc(Cn2cc(C(=O)NCc3ccc(C(=N)N)cc3)cn2)ccc1CC1CC1` [Compound 264], the figures for the IC50 on plasma kallikrein (PKa), on KLK1 (values given in µM) and against FXIa (values given in µM) were 0.82 nM, > 10 µM and > 10 µM, respectively.
Regarding `Cc1cc2nccn2c(C)c1CNC(=O)c1cn(Cc2ccc(Cn3ccccc3=O)cc2)nc1C(F)(F)F` [Compound 142, N-((5,7-dimethylimidazo[1,2-a]pyridin-6-yl)methyl)-1-(4-((2-oxopyridin-1(2H)-yl)methyl]benzyl)-3-(trifluoromethyl)-1H-pyrazole-4-carboxamide], the figures for the 50% inhibitory concentration (IC50) on plasma kallikrein (PKa), on KLK1 (values given in µM) and on FXIa (values given in µM) were 0.35 nM, > 10 µM and > 10 µM, respectively.
On to `N=C(N)c1ccc(CNC(=O)c2cnn(Cc3ccc(N4CCOCC4)c(C(F)(F)F)c3)c2)cc1` [Compound 388], for which the IC50 at plasma kallikrein (PKa) is 0.18 nM; against KLK1 (values given in µM), > 10 µM; on FXIa (values given in µM), > 10 µM.
With `Cn1cnc2c1CC[C@H]2NC(=O)c1cn(Cc2cn3cc(C4CC4)ccc3n2)nn1` [Compound 35], the IC50 on plasma kallikrein (PKa) was 1.65 nM; against KLK1 (values given in µM), > 10 µM; against FXIa (values given in µM) it was > 10 µM.
On to `O=C(NCc1cc2ccncc2[nH]1)c1cn(Cc2ccc(Cn3ccccc3=O)cc2)nc1C(F)(F)F` [Compound 155], for which the half-inhibitory concentration (IC50) is 1.48 nM on plasma kallikrein (PKa), > 10 µM on KLK1 (values given in µM) and > 10 µM against FXIa (values given in µM).
Consider `N=C(N)c1ccc(CNC(=O)c2cnn(Cc3ccc(OCC4CC4)c(C(F)(F)F)c3)c2)cc1` [Compound 385], for which the concentration for half-maximal inhibition (IC50) at plasma kallikrein (PKa) was 0.88 nM; on KLK1 (values given in µM), > 10 µM; on FXIa (values given in µM), > 10 µM.
As to `CN(C)c1ccnc(CNC(=O)c2cn(Cc3ccc(Cn4ccccc4=O)cc3)nc2C2COC2)c1F` [Compound 335], the half-inhibitory concentration (IC50) was 1.92 nM at plasma kallikrein (PKa), > 10 µM at KLK1 (values given in µM) and > 10 µM against FXIa (values given in µM).
As for `Cc1cc(N)nc(C)c1CNC(=O)c1ncn(Cc2cc(Cn3ccccc3=O)cs2)n1` [Compound 73], the values for the IC50 at plasma kallikrein (PKa), against KLK1 (values given in µM) and against FXIa (values given in µM) were 3.07 nM, > 10 µM and > 10 µM, respectively.
As to `O=C(NCc1ncc2cc[nH]c2c1F)c1cn(Cc2ccc(Cn3ccccc3=O)cc2)nc1C(F)(F)F` [Compound 357], the IC50 on plasma kallikrein (PKa) is 1.9 nM; against KLK1 (values given in µM), > 10 µM; against FXIa (values given in µM) it was > 10 µM.
As to `COc1ccc(F)c(CNC(=O)c2cn(Cc3ccc(Cn4ccccc4=O)cc3)nc2CO[C@H]2CCN(C)C2)c1F` [Compound 225], the IC50 was 2.86 nM on plasma kallikrein (PKa), > 10 µM on KLK1 (values given in µM) and > 10 µM at FXIa (values given in µM).
With `Cn1ccc2cnc(CNC(=O)c3cn(Cc4ccc(Cn5ccccc5=O)cc4)nc3C(F)(F)F)c(F)c21` [Compound 378], the IC50 was 1.41 nM on plasma kallikrein (PKa), > 10 µM at KLK1 (values given in µM) and > 10 µM against FXIa (values given in µM).
On to `COCc1nn(Cc2ccc(Cn3ccccc3=O)cc2)cc1C(=O)NCc1ncc2ccn(C)c2c1F` [Compound 363], for which the IC50 on plasma kallikrein (PKa) was 2.14 nM; on KLK1 (values given in µM), > 10 µM; against FXIa (values given in µM), > 10 µM.
Turning to `Cc1cc2nccn2c(C)c1CNC(=O)c1cnn(Cc2ccc(Cn3ccccc3=O)cc2)c1` [Compound 94], the IC50 on plasma kallikrein (PKa) was 0.53 nM; at KLK1 (values given in µM), > 10 µM; against FXIa (values given in µM), > 10 µM.
Regarding `COCc1nn(Cc2ccc(Cn3cc(F)ccc3=O)cc2)cc1C(=O)NCc1c(C)cc(N)nc1C` [Compound 24], the IC50 was 0.175 nM on plasma kallikrein (PKa), > 10 µM against KLK1 (values given in µM) and > 10 µM against FXIa (values given in µM).
Turning to `CCc1c(N)nc(C)c(CNC(=O)c2cnn(Cc3ccc(Cn4ccccc4=O)cc3)c2)c1C` [Compound 253], the figures for the IC50 at plasma kallikrein (PKa), at KLK1 (values given in µM) and at FXIa (values given in µM) were 0.18 nM, > 10 µM and > 10 µM, respectively.
In the case of `O=C(NCc1ncc2c(c1F)NCC2)c1cnn(Cc2ccc(Cn3ccccc3=O)cc2)c1` [Compound 384], the IC50 is 2.17 nM on plasma kallikrein (PKa), > 10 µM on KLK1 (values given in µM) and > 10 µM at FXIa (values given in µM).
For the molecule `CCc1cc(N2CC3C(C2)C3(F)F)ccc1Cn1cc(C(=O)NCc2ccc(C(=N)N)cc2)cn1` (stereo not drawn) [Compound 16], the IC50 on plasma kallikrein (PKa) is 1.24 nM; against KLK1 (values given in µM), > 10 µM; against FXIa (values given in µM), > 10 µM.
As to `Cc1cc(C)n(Cc2ccc(Cn3cc(C(=O)NCc4ccc(C(=N)N)cc4F)cn3)cc2)n1` [Compound 355], the IC50 on plasma kallikrein (PKa) is 0.12 nM; against KLK1 (values given in µM), > 10 µM; against FXIa (values given in µM), > 10 µM.
Consider `Cc1cc(N)nc(C)c1CNC(=O)c1ncn(Cc2ccc(Cn3cccc(C)c3=O)cc2)n1` [Compound 56], for which the 50% inhibitory concentration (IC50) on plasma kallikrein (PKa) is 0.16 nM; against KLK1 (values given in µM), > 10 µM; against FXIa (values given in µM), > 10 µM.

Source of the values: patent EP4737450A1 (Longwood Pharmaceuticals (Hangzhou) Co., Ltd, priority 2023, dated 2025).
